Converted amounts (≈) assume the structure as drawn. Read-outs that look alike come from different tables or passages of the source.
How the values were obtained:
Assay type in all cases: cell-based
[1] = system: liver cancer cell line HepG2; experiment: cells; settings: for IC50: 72 hours, CCK-8, read-out: IC50 ± SD, HepG2
Method: (§1) A pancreatic cancer cell line MIA PaCa-2, a colon cancer cell line HT-29, a lung cancer cell line A549, and a liver cancer cell line HepG2 (cell bank of Chinese Academy of Sciences) were cultured in a DMEM culture solution containing 10% fetal bovine serum (Gibco Company) at 37° C. under 5% CO2. HT-29, A549 and HepG2 cell culture media were supplemented with 10% FBS and 1% PSN, and a MIA PaCa-2 cell culture medium was supplemented with 10% FBS, 2.5% HS and 1% PSN.
(§2) Different volumes of DMEM culture media were added to dilute the compounds into different concentrations. Meanwhile, a DMEM culture medium containing 0.1% DMSO was used as a negative control.
(§3) Tumor cells were suspended in a culture medium, MIA PaCa-2, HT-29 and HepG2 cells were inoculated into a 96-well plate at a cell density of 8000, A549 cells were inoculated into a 96-well plate at a cell density of 3000 (100 μL/well), and the cells were cultured at 37° C. under 5% CO2 for 24 hours. In a logarithmic growth phase of the tumor cell lines, different concentrations of compounds (0, 0.004, 0.04, 0.4, 4, and 40 μM) were added to culture the cells at 37° C. under 5% CO2 for 72 hours.
(§4) After 72 hours of interaction between the drugs and the tumor cells, 10 μL of CCK-8 solution was added into each well to incubate the cells in a sterile incubator for 1 hour, and then the solution was taken out to determine an OD value by a microplate reader at a wavelength of 450 nm. IC50 (median inhibitory concentration) values of the compounds were calculated by GraphPad Prism 8 software, and 5-FU and Carboplatin were used as positive controls.

[2] = system: colon cancer cell line HT-29; experiment: cells; settings: for IC50: 72 hours, CCK-8, read-out: IC50 ± SD, HT-29
Method: as §1, §2, §3, §4

Candida albicans SC5314 = experiment: MIC, compound 1 alone and combined with amphotericin B
From the text: (§5) Helicobacter pylori (G27 and HP129) and Candida albicans (SC5314 and C5) both came from Professor Hongkai Bi's laboratory of Nanjing Medical University. Main culture mediums and main reagents: Colombian culture medium, LB culture medium, selective antibiotics (metronidazole and amphotericin B), serum, and the like.
(§6) LB culture medium: 15 g/L glucose, 10 g/L yeast extract, 5 g/L peptone, and 10 g/L sodium chloride.
(§7) (1) Sample solutions of the compounds 1 and 2 prepared in Embodiment 1 were configured to have a concentration of 2 mg/mL.
(§8) (2) In preparation by a MIC plate, a first well was added with 173.6 μL of culture medium and then added with 6.4 μL of antibacterial drug, and dilution was carried out by multiple proportions to a 7th well; and an 8th well was not added with the drug, but was reserved with 90 μL of culture medium to serve as a control with bacteria but no drug.
(§9) (4) In inoculation, 10 μL of bacterial solution was added into the 1st to 8th wells (a concentration of the bacterial solution in each well was about 1.0×10^6 CFU/mL). Results were judged after 72 hours of culture. Drug concentrations from the 1st to 7th wells were 64 μg/mL, 32 μg/mL, 16 μg/mL, 8 μg/mL, 4 μg/mL, 2 μg/mL, and 1 μg/mL respectively.
(§10) (5) In result judgment, a lowest drug concentration capable of completely inhibiting the growth of bacteria in the wells was MIC. The test was only meaningful when the bacteria in the 8th well of the positive control well (without antibiotics) grew obviously. When there was a single drift in a microdilution method, a highest drug concentration capable of inhibiting the growth of bacteria should be recorded. If there were many drifts, the results should not be reported, and the test should be repeated. Each drug was tested repeatedly for 3 times.

Candida albicans C5 = experiment: as above
From the text: as §5, §6, §7, §8, §9, §10

[3] = system: lung cancer cell line A549; settings: for IC50: 72 hours, CCK-8, read-out: IC50 ± SD, A549
Method: as §1, §2, §3, §4

[4] = system: pancreatic cancer cell line MIA PaCa-2; settings: for IC50: 72 hours, CCK-8, read-out: IC50 ± SD, MIA PaCa-2
Method: as §1, §2, §3, §4

[5] = system: Helicobacter pylori H. pylori G27; experiment: Determination of MIC (microdilution); settings: 72 hours of culture
Method: as §5
(§11) Colombian liquid culture medium: 29.0 g of Colombian liquid culture medium was accurately weighed, heated, and dissolved in 1000 mL of double distilled water, and the culture medium was subjected to autoclaved sterilization at 121° C. for 15 minutes after being completely dissolved for later use.
(§12) Colombian blood agar solid culture medium: 39.0 g of Colombian blood agar solid culture medium was accurately weighed, heated, and dissolved in 1000 mL of double distilled water, and the culture medium was subjected to autoclaved sterilization at 121° C. for 15 minutes after being completely dissolved, naturally cooled to about 50° C. after the autoclaved sterilization, quickly added with 5% sterile deflbrinated sheep blood, mixed evenly, and then poured into a sterile dish while the mixture was hot.
(§13) Standard strains of Helicobacter pylori were taken out of a refrigerator at −80° C. and placed at room temperature, 200 μL of standard strains were accurately sucked, transferred to a solid culture medium, and spread with an L-shaped glass rod, a culture dish loaded with the strains was put into a culture bag, then an AnaeroPack was put into the culture bag, and the culture bag was quickly sealed and then put into a constant-temperature incubator at 37° C. to culture the strains for 72 hours. After the end of culture, the Helicobacter pylori was identified first, then a bacterial lawn on the solid culture medium was scraped off, and the bacterial lawn was transferred into 50 mL of liquid culture medium to serve as an original bacterial solution.
as §7, §8
(§14) (3) In preparation of bacterial solution, the Helicobacter pylori growing at a logarithmic phase on a solid plate was made into a bacterial suspension with a BHI culture medium, an OD600 value of concentration of the bacterial suspension was adjusted to be 0.3 (1×10^8 CFU/mL), and then the bacterial suspension was diluted 10 times to reach 1×10^7 CFU/mL for later use.
as §9, §10

[6] = system: Helicobacter pylori H. pylori 129; experiment: Determination of MIC (microdilution); settings: 72 hours of culture, R = drug-resistant strain
Method: as §5, §11, §12, §13, §7, §8, §14, §9, §10

With `O=c1[nH]cc(F)c(=O)[nH]1` [5-Fluorouracil, reference compound] as the compound, how does the IC50 ([1]; Homo sapiens, HepG2) read?
The IC50 was 4.82 ± 0.07 µM.

What about the IC50 ([2]; Homo sapiens, HT-29) of the same compound?
Its IC50 is 12.87 ± 0.04 µM.

Which “AMB MIC, separate use” value (Candida albicans SC5314; SC5314, AMB alone) does the source give for `C[C@@H]1[C@H](O)[C@@H](C)/C=C/C=C/C=C/C=C/C=C/C=C/C=C/[C@H](O[C@@H]2O[C@H](C)[C@@H](O)[C@H](N)[C@@H]2O)C[C@@H]2O[C@](O)(C[C@@H](O)C[C@@H](O)[C@H](O)CC[C@@H](O)C[C@@H](O)CC(=O)O[C@H]1C)C[C@H](O)[C@H]2C(=O)O` [AMB, amphotericin B, reference compound] here?
Its value is 2 mg/L.

What about the “AMB MIC, separate use” value (Candida albicans C5; C5, AMB alone) of the same compound?
Its value is 2 mg/L.

For `N.N.O=C([O-])C1(C(=O)[O-])CCC1.[Pt+2]` [Carboplatin, reference compound], which IC50 [3] is on record?
Its IC50 is > 40 µM.

Which “cytotoxic activity in words, MIA PaCa-2” value [4] does the source give for `COC(=O)C12CCC(C)(CC3C(=O)C45C(O)C3CCC4C34COC5(O)C(O)C3C(C)(C)CCC4O)C(C)=C1C1=CCC3C4(C)CC(O)C(O)C(C)(C)C4CCC3(C)C1(C)CC2` (centres unmarked) [Compound 1, Bisicacinol B] here?
Its value is “strong activity”.

What about the IC50 [4] of the same compound?
The IC50 was 13.1 ± 0.18 µM.

And the “cytotoxic activity in words, A549” value [3]?
Its value is “strong activity”.

What about the IC50 [3] of the same compound?
Its IC50 is 4.2 ± 0.24 µM.

What about the “inhibitory effect on growth in words, used separately” value (Candida albicans SC5314; Candida albicans SC5314, compound alone) of the same compound?
Its value is “no significant inhibitory effect”.

What about the “Compound 1 MIC, combined use” value (Candida albicans SC5314; SC5314, combined with AMB) of the same compound?
The value was 1 mg/L.

What about the “FICI index after combination” value (Candida albicans SC5314; SC5314, compound 1 + AMB) of the same compound?
The value was ≤0.078.

What about the “Compound 1 MIC, separate use” value (Candida albicans SC5314; SC5314, compound 1 alone) of the same compound?
The value was >32 mg/L.

What about the “MIC + 0.5 μg/ml AMB” value (Candida albicans SC5314; SC5314, compound 1 with 0.5 μg/ml AMB) of the same compound?
Its value is 1 mg/L.

And the “Compound 1 MIC, combined use” value (Candida albicans C5; C5, combined with AMB)?
Its value is 1 mg/L.

What about the “FICI index after combination” value (Candida albicans C5; C5, compound 1 + AMB) of the same compound?
Its value is ≤0.078.

And the “Compound 1 MIC, separate use” value (Candida albicans C5; C5, compound 1 alone)?
The value was >32 mg/L.

And the “MIC + 0.5 μg/ml AMB” value (Candida albicans C5; C5, compound 1 with 0.5 μg/ml AMB)?
The value was 1 mg/L.

What about the “inhibitory effect on growth in words, used separately” value (Candida albicans C5; Candida albicans C5, compound alone) of the same compound?
Its value is “no significant inhibitory effect”.

And the “cytotoxic activity in words, HepG2” value [1]?
The value was “strong activity”.

What about the IC50 [1] of the same compound?
The IC50 was 14.84 ± 0.12 µM.

What about the “cytotoxic activity in words, HT-29” value [2] of the same compound?
The value was “strong activity”.

And the IC50 [2]?
Its IC50 is 14.95 ± 0.14 µM.

What about the “MIC, H. pylori G27” value [5] of the same compound?
The value was 16 mg/L (≈ 18.8 µM).

What about the “MIC, H. pylori 129” value [6] of the same compound?
Its value is 32 mg/L (≈ 37.7 µM).

Which IC50 [4] does the source give for `COC(=O)C12CCC(C)(CC3C(=O)C45C(O)C3CCC4C34COC5(O)C(O)C3C(C)(C)CCC4O)C(C)=C1C1=CCC3C4(C)CC(O)C(O)C(C)(C)C4CCC3(C)C1(C)CC2` (centres unmarked) [Compound 2, Bisicacinol C] here?
The IC50 was > 40 µM.

What about the “cytotoxic activity in words, A549” value [3] of the same compound?
Its value is “strong inhibitory activity”.

What about the IC50 [3] of the same compound?
The IC50 was 23.1 ± 0.12 µM.

And the IC50 [1]?
Its IC50 is > 40 µM.

And the “cytotoxic activity in words, HT-29” value [2]?
Its value is “strong inhibitory activity”.

And the IC50 [2]?
Its IC50 is 33.35 ± 0.06 µM.

What about the “MIC, H. pylori G27” value [5] of the same compound?
The value was 16 mg/L (≈ 18.8 µM).

What about the “MIC, H. pylori 129” value [6] of the same compound?
The value was 32 mg/L (≈ 37.7 µM).

What does the source list for `Cc1ncc([N+](=O)[O-])n1CCO` [MTZ, metronidazole, reference compound]?
MIC ([5]; Helicobacter pylori): 2 mg/L (≈ 11.7 µM); MIC ([6]; Helicobacter pylori): 8 mg/L (≈ 46.7 µM)

Reference: US20250281444A1, “COMPOUND WITH NEW SKELETON OF URSANE TRITERPENOID - ENT-KAURANE DITERPENOID DIMER, AND PREPARATION METHOD THEREOF AND APPLICATION THEREOF” (NANJING UNIVERSITY OF CHINESE MEDICINE, priority 2025, published 2025)
